# Source: US12195506B2, “Immunotherapy with A*01 restricted peptides and combination of peptides against cancers and related methods” (Immatics Biotechnologies GmbH, priority 2018, dated 2025)
# What was measured:
# CD8+ T cells = experiment: In vitro T-cell priming assay with artificial antigen presenting cells loaded with peptide/MHC complexes and anti-CD28 antibody, pMHC multimer readout; format: cell-based, human; conditions: in vitro immunogenicity, peptide-specific multimer+ CD8+ T cells
# From the text: In order to obtain information regarding the immunogenicity of the TUMAPs of the present invention, the inventors performed investigations using an in vitro T-cell priming assay based on repeated stimulations of CD8+ T cells with artificial antigen presenting cells (aAPCs) loaded with peptide/MHC complexes and anti-CD28 antibody.
# In order to perform in vitro stimulations by artificial antigen presenting cells loaded with peptide-MHC complex (pMHC) and anti-CD28 antibody, the inventors first isolated CD8+ T cells from fresh HLA-A*02 leukapheresis products via positive selection using CD8 microbeads (Miltenyi Biotec, Bergisch-Gladbach, Germany) of healthy donors obtained from the University clinics Mannheim, Germany, after informed consent.
# PBMCs and isolated CD8+ lymphocytes were incubated in T-cell medium (TCM) until use consisting of RPMI-Glutamax (Invitrogen, Karlsruhe, Germany) supplemented with 10% heat inactivated human AB serum (PAN-Biotech, Aidenbach, Germany), 100 U/ml Penicillin/100 μg/ml Streptomycin (Cambrex, Cologne, Germany), 1 mM sodium pyruvate (CC Pro, Oberdorla, Germany), 20 μg/ml Gentamycin (Cambrex). 2.5 ng/ml IL-7 (PromoCell, Heidelberg, Germany) and 10 U/ml IL-2 (Novartis Pharma, Nurnberg, Germany) were also added to the TCM at this step.
# Generation of pMHC/anti-CD28 coated beads, T-cell stimulations and readout was performed in a highly defined in vitro system using four different pMHC molecules per stimulation condition and 8 different pMHC molecules per readout condition.
# The purified co-stimulatory mouse IgG2a anti human CD28 Ab 9.3 (Jung et al., 1987) was chemically biotinylated using Sulfo-N-hydroxysuccinimidobiotin as recommended by the manufacturer (Perbio, Bonn, Germany). Beads used were 5.6 μm diameter streptavidin coated polystyrene particles (Bangs Laboratories, Illinois, USA).
# pMHC used for positive and negative control stimulations were A*0201/MLA-001 (peptide […] (SEQ ID NO. 433) from modified Melan-A/MART-1) and A*0201/DDX5-001 ([…] from DDX5, SEQ ID NO. 434), respectively.
# 800.000 beads/200 μI were coated in 96-well plates in the presence of 4×12.5 ng different biotin-pMHC, washed and 600 ng biotin anti-CD28 were added subsequently in a volume of 200 μI. Stimulations were initiated in 96-well plates by co-incubating 1×10^6 CD8+ T cells with 2×10^5 washed coated beads in 200 μI TCM supplemented with 5 ng/ml IL-12 (PromoCell) for 3 days at 37° C. Half of the medium was then exchanged by fresh TCM supplemented with 80 U/ml IL-2 and incubating was continued for 4 days at 37° C. This stimulation cycle was performed for a total of three times. For the pMHC multimer readout using 8 different pMHC molecules per condition, a two-dimensional combinatorial coding approach was used as previously described (Andersen et al., 2012) with minor modifications encompassing coupling to 5 different fluorochromes. Finally, multimeric analyses were performed by staining the cells with Live/dead near IR dye (Invitrogen, Karlsruhe, Germany), CD8-FITC antibody clone SK1 (BD, Heidelberg, Germany) and fluorescent pMHC multimers. For analysis, a BD LSRII SORP cytometer equipped with appropriate lasers and filters was used. Peptide specific cells were calculated as percentage of total CD8+ cells. Evaluation of multimeric analysis was done using the FlowJo software (Tree Star, Oregon, USA). In vitro priming of specific multimer+CD8+ lymphocytes was detected by comparing to negative control stimulations.
# HLA-A*01:01 = HLA-A*01:01 (Homo sapiens, UniProt P04439, A114D/A174V/A182V/D101N/D185E/E176A/E190D/L180R/Q94H/R68K/S129P/T187R/V100A/V91M/W191G); experiment: MHC binding assay: UV-ligand exchange, ELISA of stabilized MHC complexes (peptide exchange yield); conditions: binding to HLA-A*01:01, UV-ligand exchange
# Outline: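 Peptide–MHC complexes were formed by UV-induced exchange of a photocleavable ligand for the test peptide. Exchange yield was measured by streptavidin-capture ELISA of 100-fold diluted complexes, detected with HRP anti-β2m at A450. Refolded HLA-A*02:01/MLA-001 monomers at 15-500 ng/ml served as standards.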
Substance,Wells positive [%] (CD8+ T cells; Table 10b),Peptide exchange (HLA-A*01:01),Wells positive [%] (CD8+ T cells; Table 10a)
10 (VSERTGISY; listed as Homo sapiens) [compound 10],+ (<20% = +),+++ (>50 = +++),–
11 (ASDHWRGRY; listed as Homo sapiens) [compound 11],+++ (50%-69% = +++),+++ (>50 = +++),–
12 (YTDFVGEGLY; listed as Homo sapiens) [compound 12],+ (<20% = +),+++ (>50 = +++),–
18 (RSDPVSLRY; listed as Homo sapiens) [compound 18],++ (20%-49% = ++),++++ (>75% = ++++),–
19 (LTEGHSGNY; listed as Homo sapiens) [compound 19],+ (<20% = +),++++ (>75% = ++++),–
24 (NLDHYTNAY; listed as Homo sapiens) [compound 24],+ (<20% = +),+++ (>50 = +++),–
26 (ASDDFRSKY; listed as Homo sapiens) [compound 26],++ (20%-49% = ++),+++ (>50 = +++),–
27 (PSEVPVDSHY; listed as Homo sapiens) [compound 27],+ (<20% = +),++++ (>75% = ++++),–
33 (SMDPVTGYQY; listed as Homo sapiens) [compound 33],+ (<20% = +),+++ (>50 = +++),–
37 (MTSTEQSLYY; listed as Homo sapiens) [compound 37],+ (<20% = +),+++ (>50 = +++),–
42 (ASDVDTLLK; listed as Homo sapiens) [compound 42],+ (<20% = +),+++ (>50 = +++),–
53 (YLEDRPLSQLY; listed as Homo sapiens) [compound 53],+ (<20% = +),++++ (>75% = ++++),–
54 (EVDIHTIHY; listed as Homo sapiens) [compound 54],+ (<20% = +),+++ (>50 = +++),–
60 (MTEKFLFLY; listed as Homo sapiens) [compound 60],+ (<20% = +),++++ (>75% = ++++),–
61 (SSDIVALGGFLY; listed as Homo sapiens) [compound 61],++ (20%-49% = ++),+++ (>50 = +++),–
64 (TSEISQNALMYY; listed as Homo sapiens) [compound 64],+ (<20% = +),+++ (>50 = +++),–
70 (YTELVEEKY; listed as Homo sapiens) [compound 70],+ (<20% = +),+++ (>50 = +++),–
71 (LTDSTTRTTY; listed as Homo sapiens) [compound 71],+ (<20% = +),+++ (>50 = +++),–
73 (STDSASYY; listed as Homo sapiens) [compound 73],+ (<20% = +),++++ (>75% = ++++),–
75 (FTDYELKAY; listed as Homo sapiens) [compound 75],+ (<20% = +),++++ (>75% = ++++),–
77 (FTSDTGLEY; listed as Homo sapiens) [compound 77],+++ (50%-69% = +++),++++ (>75% = ++++),–

Substance,Wells positive [%] (CD8+ T cells; Table 10b),Peptide exchange (HLA-A*01:01),Wells positive [%] (CD8+ T cells; Table 10a)
79 (ASDLEPRELLSY; listed as Homo sapiens) [compound 79],+ (<20% = +),+++ (>50 = +++),–
81 (YSDLHTPGRY; listed as Homo sapiens) [compound 81],+ (<20% = +),+++ (>50 = +++),–
82 (LTEKSHIRY; listed as Homo sapiens) [compound 82],+ (<20% = +),+++ (>50 = +++),–
83 (DTEFHGGLHY; listed as Homo sapiens) [compound 83],+ (<20% = +),+++ (>50 = +++),–
84 (ESEMIKFASYY; listed as Homo sapiens) [compound 84],+ (<20% = +),++++ (>75% = ++++),–
386 (NSALNPLLY; listed as Homo sapiens) [compound 386],+ (<20% = +),++++ (>75% = ++++),–
387 (LMEKEDYHSLY; listed as Homo sapiens) [compound 387],+ (<20% = +),+++ (>50 = +++),–
399 (YVGKEHMFY; listed as Homo sapiens) [compound 399],–,–,+ (<20% = +)
400 (NTDNNLAVY; listed as Homo sapiens) [compound 400],–,–,+ (<20% = +)
401 (VWSNVTPLKF; listed as Homo sapiens) [compound 401],–,–,+ (<20% = +)
403 (SADDIRGIQSLY; listed as Homo sapiens) [compound 403],–,–,+ (<20% = +)
404 (FVDNQYWRY; listed as Homo sapiens) [compound 404],–,–,+ (<20% = +)
408 (VWSDVTPLTF; listed as Homo sapiens) [compound 408],–,–,+ (<20% = +)
414 (LTEGHSGNYY; listed as Homo sapiens) [compound 414],–,–,+ (<20% = +)
415 (VWSDVTPLNF; listed as Homo sapiens) [compound 415],–,–,+ (<20% = +)
417 (KLDRSVFTAY; listed as Homo sapiens) [compound 417],–,–,++++ (>= 70% = ++++)
420 (VTDLEMPHY; listed as Homo sapiens) [compound 420],–,–,+ (<20% = +)
421 (RSDPGGGGLAY; listed as Homo sapiens) [compound 421],–,–,+ (<20% = +)
427 (LTDYINANY; listed as Homo sapiens) [compound 427],–,–,+ (<20% = +)
429 (VSDSECLSRY; listed as Homo sapiens) [compound 429],–,–,++ (20%-49% = ++)
